pIC50: −log10 of the molar value.
test system: not given; experiment: not given; settings: not given

SMILES	melting point [°C]
Cn1cc(C(N)=O)c(Nc2ccc(C(F)(F)C(F)(F)C(F)(F)C(F)(F)F)cc2F)cc1=O	112 to 118
Cn1cc(C(=O)NCCO)c(Nc2ccc(I)cc2F)cc1=O [Example 4, 4-(2-Fluoro-4-iodoanilino)-N-(2-hydroxyethyl)-1-methyl-6-oxo-1,6-dihydro-3-pyridinecarboxamide]	205 to 208
C#Cc1ccc(Nc2cc(=O)[nH]cc2C(=O)NCCO)c(F)c1 [Example 12, 4-(4-Ethynyl-2-fluoroanilino)-N-(2-hydroxyethyl)-6-oxo-1,6-dihydro-3-pyridinecarboxamide]	265 to 273
CCc1ccc(Nc2cc(=O)[nH]cc2C(=O)NCCO)c(F)c1 [Example 13]	256 to 258
C#Cc1ccc(Nc2cc(=O)[nH]cc2C(=O)NCCCO)c(F)c1 [Example 15, 4-(4-Ethynyl-2-fluoroanilino)-N-(3-hydroxypropyl)-6-oxo-1,6-dihydro-3-pyridinecarboxamide]	249 to 252
CCc1ccc(Nc2cc(=O)[nH]cc2C(=O)NCCCO)c(F)c1 [Example 16, 4-(4-Ethyl-2-fluoroanilino)-N-(3-hydroxypropyl)-6-oxo-1,6-dihydro-3-pyridinecarboxamide]	231 to 233
CCc1ccc(Nc2cc(=O)n(C)cc2C(N)=O)c(F)c1 [Example 18, 4-(4-Ethyl-2-fluoroanilino)-1-methyl-6-oxo-1,6-dihydro-3-pyridinecarboxamide]	268 to 272
NC(=O)c1cn(CCO)c(=O)cc1Nc1ccc(I)cc1F [Example 22, 4-(2-Fluoro-4-iodoanilino)-1-(2-hydroxyethyl)-6-oxo-1,6-dihydro-3-pyridinecarboxamide]	212 to 215
O=C(NCCCO)c1cn(CCO)c(=O)cc1Nc1ccc(I)cc1F [Example 23, 4-(2-Fluoro-4-iodoanilino)-1-(2-hydroxyethyl)-N-(3-hydroxypropyl)-6-oxo-1,6-dihydro-3-pyridinecarboxamide]	174 to 176
NC(=O)c1cn(CC(=O)O)c(=O)cc1Nc1ccc(I)cc1F [Example 25]	296 to 300
N#CCCCn1cc(C(N)=O)c(Nc2ccc(I)cc2F)cc1=O [Example 26, 1-(3-Cyanopropyl)-4-(2-fluoro-4-iodoanilino)-6-oxo-1,6-dihydro-3-pyridinecarboxamide]	146 to 150
CCn1cc(C(N)=O)c(Nc2ccc(I)cc2F)cc1=O [Example 27, 1-Ethyl-4-(2-fluoro-4-iodoanilino)-6-oxo-1,6-dihydro-3-pyridinecarboxamide]	260 to 262
CCCn1cc(C(N)=O)c(Nc2ccc(I)cc2F)cc1=O [Example 28, 4-(2-Fluoro-4-iodoanilino)-6-oxo-1-propyl-1,6-dihydro-3-pyridinecarboxamide]	218 to 220
COCCOCCn1cc(C(N)=O)c(Nc2ccc(I)cc2F)cc1=O [Example 29, 4-(2-Fluoro-4-iodoanilino)-1-[2-(2-methoxyethoxy)ethyl]-6-oxo-1,6-dihydro-3-pyridinecarboxamide]	114 to 116
NC(=O)c1cn(CCCO)c(=O)cc1Nc1ccc(I)cc1F [Example 32, 4-(2-Fluoro-4-iodoanilino)-1-(3-hydroxypropyl)-6-oxo-1,6-dihydro-3-pyridinecarboxamide]	220 to 223
Cn1cc(C(=O)NOCCO)c(Nc2ccc(F)cc2F)cc1=O [Example 33, 4-(2,4-Difluoroanilino)-N-(2-hydroxyethoxy)-1-methyl-6-oxo-1,6-dihydro-3-pyridinecarboxamide]	232 to 238
Cn1cc(C(=O)NCCCO)c(Nc2ccc(F)cc2F)cc1=O [Example 34, 4-(2,4-Difluoroanilino)-N-(3-hydroxypropyl)-1-methyl-6-oxo-1,6-dihydro-3-pyridinecarboxamide]	129 to 132

SMILES	melting point [°C]
Cc1ccc(Nc2cc(=O)n(C)cc2C(=O)NOCCO)c(F)c1 [Example 35, 4-(2-Fluoro-4-methylanilino)-N-(2-hydroxyethoxy)-1-methyl-6-oxo-1,6-dihydro-3-pyridinecarboxamide]	110 to 115
Cc1ccc(Nc2cc(=O)n(C)cc2C(=O)NCCCO)c(F)c1 [Example 36, 4-(2-Fluoro-4-methylanilino)-N-(3-hydroxypropyl)-1-methyl-6-oxo-1,6-dihydro-3-pyridinecarboxamide]	142 to 145
Cn1cc(C(=O)NOCCO)c(Nc2ccc(Br)cc2F)cc1=O [Example 38, 4-(4-Bromo-2-fluoroanilino)-N-(2-hydroxyethoxy)-1-methyl-6-oxo-1,6-dihydro-3-pyridinecarboxamide]	124 to 128
Cn1cc(C(=O)NCCCO)c(Nc2ccc(Br)cc2F)cc1=O [Example 39, 4-(4-Bromo-2-fluoroanilino)-N-(3-hydroxypropyl)-1-methyl-6-oxo-1,6-dihydro-3-pyridinecarboxamide]	167 to 170
Cn1cc(C(N)=O)c(Nc2ccc3ccccc3c2)cc1=O [Example 43, 1-Methyl-4-(2-naphthylamino)-6-oxo-1,6-dihydro-3-pyridinecarboxamide]	254 to 257
Cn1cc(C(=O)NCC(O)CO)c(Nc2ccc(I)cc2F)cc1=O (stereo not drawn) [Example 45, N-(2,3-Dihydroxypropyl)-4-(2-fluoro-4-iodoanilino)-1-methyl-6-oxo-1,6-dihydro-3-pyridinecarboxamide]	96 to 101
Cn1cc(C(=O)NC(CO)CO)c(Nc2ccc(I)cc2F)cc1=O [Example 46, 4-(2-Fluoro-4-iodoanilino)-N-[2-hydroxy-1-(hydroxymethyl)ethyl]-1-methyl-6-oxo-1,6-dihydro-3-pyridinecarboxamide]	93 to 98
CC(CO)NC(=O)c1cn(C)c(=O)cc1Nc1ccc(I)cc1F (stereo not drawn) [Example 49, 4-(2-Fluoro-4-iodoanilino)-N-(2-hydroxy-1-methylethyl)-1-methyl-6-oxo-1,6-dihydro-3-pyridinecarboxamide]	198 to 202
CC(O)CNC(=O)c1cn(C)c(=O)cc1Nc1ccc(I)cc1F (stereo not drawn) [Example 50, 4-(2-Fluoro-4-iodoanilino)-N-(2-hydroxypropyl)-1-methyl-6-oxo-1,6-dihydro-3-pyridinecarboxamide]	161 to 166
CN(C)C(=O)c1cn(C)c(=O)cc1Nc1ccc(I)cc1F [Example 52, 4-(2-Fluoro-4-iodoanilino)-N,N,1-trimethyl-6-oxo-1,6-dihydro-3-pyridinecarboxamide]	106 to 111
Cn1cc(C(=O)NCCCN)c(Nc2ccc(I)cc2F)cc1=O [Example 53, N-(3-Aminopropyl)-4-(2-fluoro-4-iodoanilino)-1-methyl-6-oxo-1,6-dihydro-3-pyridinecarboxamide]	201 to 206
Cn1cc(C(N)=O)c(Nc2ccc(C#N)cc2F)cc1=O [Example 54, 4-(4-Cyano-2-fluoroanilino)-1-methyl-6-oxo-1,6-dihydro-3-pyridinecarboxamide]	261 to 266
Cn1cc(C(=O)O)c(Nc2ccc(I)cc2F)cc1=O [Example 55, 4-(2-fluoro-4-iodoanilino)-1-methyl-6-oxo-1,6-dihydro-3-pyridinecarboxylic acid]	254 to 257
Cn1cc(C(N)=O)c(Nc2ccc(Cl)c(Cl)c2)cc1=O [Example 56, 4-(3,4-Dichloro-phenylamino)-1-methyl-6-oxo-1,6-dihydro-pyridine-3-carboxylic acid amide]	> 250
Cc1ccc(Nc2cc(=O)n(C)cc2C(=O)O)cc1C [Example 63, 4-(3,4-Dimethyl-phenylamino)-1-methyl-6-oxo-1,6-dihydro-pyridine-3-carboxylic acid]	238 to 242
Cn1cc(C(=O)O)c(Nc2ccc3c(c2)CCC3)cc1=O [Example 64, 4-(Indan-5-ylamino)-1-methyl-6-oxo-1,6-dihydro-pyridine-3-carboxylic acid]	218 to 220
Cn1cc(C(=O)O)c(Nc2ccc(Cl)c(Cl)c2Cl)cc1=O [Example 65, 1-Methyl-6-oxo-4-(2,3,4-trichloro-phenylamino)-1,6-dihydro-pyridine-3-carboxylic acid]	258 to 261

test system: phosphorylation of MAP kinase (ERK) in murine colon 26 (C26) carcinoma cells; experiment: Cellular inhibition of ERK phosphorylation, C26ELSA (pERK ELISA format); assay type: cell-based; settings: Mus musculus, 1 h, C26 cells treated with test compound for one hour at 37° C.
Protocol: MEK inhibitors were evaluated by determining their ability to inhibit phosphorylation of MAP kinase (ERK) in murine colon 26 (C26) carcinoma cells. Since ERK1 and ERK2 represent the only known substrates for MEK1and MEK2, the measurement of inhibition of ERK phosphorylation in cells provides direct read out of cellular MEK inhibition by the compounds of the invention. Detection of phosphorylation of ERK was carried out either by Western blot or ELISA format. Briefly, the assays involve treatment of exponentially growing C26 cells with varying concentrations of the test compound (or vehicle control) for one hour at 37° C. For Western blot assay, cells were rinsed free of compound/vehicle and lysed in a solution containing 70 mM NaCl, 50 mM glycerol phosphate, 10 mM HEPES, pH 7.4, 1% Triton X-100, 1 mM Na3VO4, 100 μM PMSF, 10 μM leupeptin and 10 μM pepstatin. Supernatants were then subjected to gel electrophoresis and hybridized to a primary antibody recognizing dually phosphorylated ERK1 and ERK2. To evaluate total MAPK levels, blots were subsequently ‘stripped’ and re-probed with a 1:1 mixture of polyclonal antibodies recognizing unphosphorylated ERK1 and ERK2. For pERK ELISA assay, pERK TiterZyme Enzyme immunometric Assay kits were acquired from Assay Designs, Inc (Ann Arbor, Mich.). Briefly, cells were harvested in lysis solution containing 50 mM β-glycerophosphate, 10 mM HEPES, ph7.4, 70 mM NaCl, 2 mM EDTA and 1% SDS and protein lysates were diluted 1:15 with supplied Assay buffer prior to the execution of the assay. The subsequent steps were carried out essentially as recommended by the manufacturer.
The inhibition data generated by the above protocols is disclosed in Table I. If several concentrations of inhibitor were tested, IC50 values (the concentration which gives 50% inhibition) were determined graphically from the dose response curve for % inhibition. Otherwise, percent inhibitions at measured concentrations are reported.

SMILES	pIC50
Cn1cc(C(N)=O)c(Nc2ccc(I)cc2F)cc1=O [Example 10, 4-(2-Fluoro-4-iodoanilino)-1-methyl-6-oxo-1,6-dihydro-3-pyridinecarboxamide]	8.36
CSc1ccc(Nc2cc(=O)n(C)cc2C(=O)NCCCO)c(F)c1 [Example 85, 4-(2-Fluoro-4-methylsulfanyl-phenylamino)-1-methyl-6-oxo-1,6-dihydro-pyridine-3-carboxylic acid (3-hydroxy-propyl)-amide]	6.82

Reference: patent US7273877B2, “5-substituted-4-[(substituted phenyl) amino]-2-pyridone derivatives” (Warner-Lambert Company, LLC, priority 2003, dated 2007)
